One assay has as its system Aβtotal. The assay is described as follows: In vivo efficacy Method 2: brain soluble Aβtotal by ELISA. Set-up: species or system mouse. Conditions: Table 4b, single oral dose, overnight fasted non-transgenic animals, sacrificed after 4 h, soluble fraction of brain homogenates. From the text: (§1) To determine whether acute administration of an Aβ42 lowering agent would reduce Aβ42 levels in vivo, non-transgenic rodents, e.g. mice or rats were used. Animals treated with the Aβ42 lowering agent were examined and compared to those untreated or treated with vehicle and brain levels of soluble Aβ42 and total Aβ were quantitated by standard techniques, for example, using ELISA. Treatment periods varied from hours (h) to days and were adjusted based on the results of the Aβ42 lowering once a time course of onset of effect could be established.
(§2) A typical protocol for measuring Aβ42 lowering in vivo is shown but it is only one of many variations that could be used to optimize the levels of detectable Aβ. For example, Aβ42 lowering compounds were formulated in 20% of Captisol® (a sulfobutyl ether of β-cyclodextrin) in water or 20% hydroxypropyl β cyclodextrin. The Aβ42 lowering agents were administered as a single oral dose or by any acceptable route of administration to overnight fasted animals. After 4 h, the animals were sacrificed and Aβ42 levels were analysed.
(§3) Blood was collected by decapitation and exsanguinations in EDTA-treated collection tubes. Blood was centrifuged at 1900 g for 10 minutes (min) at 4° C. and the plasma recovered and flash frozen for later analysis. The brain was removed from the cranium and hindbrain. The cerebellum was removed and the left and right hemisphere were separated. The left hemisphere was stored at −18° C. for quantitative analysis of test compound levels. The right hemisphere was rinsed with phosphate-buffered saline (PBS) buffer and immediately frozen on dry ice and stored at −80° C. until homogenization for biochemical assays.
(§4) Mouse brains from non-transgenic animals were resuspended in 8 volumes of 0.4% DEA (diethylamine)/50 mM NaCl containing protease inhibitors (Roche-11873580001 or 04693159001) per gram of tissue, e.g. for 0.158 g brain, add 1.264 ml of 0.4% DEA. All samples were homogenized in the FastPrep-24 system (MP Biomedicals) using lysing matrix D (MPBio #6913-100) at 6 m/s for 20 seconds. Homogenates were centrifuged at 221.300×g for 50 min. The resulting high speed supernatants were then transferred to fresh eppendorf tubes. Nine parts of supernatant were neutralized with 1 part 0.5 M Tris-HCl pH 6.8 and used to quantify Aβtotal and Aβ42.
(§5) To quantify the amount of Aβtotal and Aβ42 in the soluble fraction of the brain homogenates, Enzyme-Linked-Immunosorbent-Assays were used . Briefly, the standards (a dilution of synthetic Aβ1-40 and Aβ1-42, Bachem) were prepared in 1.5 ml Eppendorf tube in Ultraculture, with final concentrations ranging from 10000 to 0.3 pg/ml. The samples and standards were co-incubated with HRPO-labelled N-terminal antibody for Aβ42 detection and with the biotinylated mid-domain antibody 4G8 for Aβtotal detection. 50 μl of conjugate/sample or conjugate/standards mixtures were then added to the antibody-coated plate (the capture antibodies selectively recognize the C-terminal end of Aβ42, antibody JRF/cAβ42/26, for Aβ42 detection and the N-terminus of Aβ, antibody JRF/rAβ/2, for Aβtotal detection). The plate was allowed to incubate overnight at 4° C. in order to allow formation of the antibody-amyloid complex. Following this incubation and subsequent wash steps the ELISA for Aβ42 quantification was finished by addition of Quanta Blu fluorogenic peroxidase substrate according to the manufacturer's instructions (Pierce Corp., Rockford, Ill.). A reading was performed after 10 to 15 min (excitation 320/emission 420).
For Aβtotal detection, a Streptavidine-Peroxidase-Conjugate was added, followed 60 min later by an additional wash step and addition of Quanta Blu fluorogenic peroxidase substrate according to the manufacturer's instructions (Pierce Corp., Rockford, Ill.). A reading was performed after 10 to 15 min (excitation 320 nm/emission 420 nm).

For a further assay, the system named is Aβ42. The assay is described as follows: In vivo efficacy Method 2: brain soluble Aβ42 by ELISA. Set-up: species or system mouse. Conditions: Table 4b, single oral dose, overnight fasted non-transgenic animals, sacrificed after 4 h, soluble fraction of brain homogenates.
From the text: as §1, §2, §3, §4, §5
In this model at least 20% Aβ42 lowering compared to untreated animals would be advantageous.

Here are results for two molecules from patent US8772504B2, “Substituted benzoxazole, benzimidazole, oxazolopyridine and imidazopyridine derivatives as gamma secretase modulators” (Janssen Pharmaceuticals, Inc., priority 2009, dated 2014).

For the molecule `COc1nc(Nc2cccc3c2nc(-c2ccc(F)cc2)n3C)ccc1-n1cnc(C)c1` [Compound 15], the “Aβtotal (% Ctrl) _Mean” value with Aβtotal amounted to 82 % Ctrl. In addition, the “Aβ42 (% Ctrl) _Mean” value in the assay with Aβ42 was 39 % Ctrl.

In the case of `COc1cc(Nc2cc(C(C)C)nc3c2nc(-c2ccc(F)cc2)n3C)ccc1-n1cnc(C)n1` [Compound 110], the “Aβtotal (% Ctrl) _Mean” value in the assay with Aβtotal stood at 106 % Ctrl. The “Aβ42 (% Ctrl) _Mean” value with Aβ42 is given as 78 % Ctrl.
